According to ChEMBL document CHEMBL1201862, “PubChem BioAssay data set” (2004):
Calls of active or inactive are those of the source.

Key:
[1] = tested on: HeLa; assay: ATP-based viability loss in HeLa cells – cell-based, CellTiter-Glo luminescence, cherry-pick samples, cytotoxicity control for MITF activator project, dose response (AID 540259); type: functional; details: Homo sapiens
[2] = target: Dual specificity protein phosphatase 3 (Homo sapiens, UniProt P51452); assay: SAR VHR1 Fluorescent Assay for In Vitro dose response studies Set 2. [Related pubchem assays (depositor defined):AID1654, AID1661, AID1878]; type: functional
[3] = target: T1, Dual specificity protein phosphatase 6 (Rattus norvegicus, UniProt Q64346); type: functional;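 further: confirmatory in vitro dose-response testing of MKP-3 inhibition; recombinant His-tagged MKP-3 made in E. coli BL21 with OMFP substrate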
T1 sequence (Q64346 whole entry): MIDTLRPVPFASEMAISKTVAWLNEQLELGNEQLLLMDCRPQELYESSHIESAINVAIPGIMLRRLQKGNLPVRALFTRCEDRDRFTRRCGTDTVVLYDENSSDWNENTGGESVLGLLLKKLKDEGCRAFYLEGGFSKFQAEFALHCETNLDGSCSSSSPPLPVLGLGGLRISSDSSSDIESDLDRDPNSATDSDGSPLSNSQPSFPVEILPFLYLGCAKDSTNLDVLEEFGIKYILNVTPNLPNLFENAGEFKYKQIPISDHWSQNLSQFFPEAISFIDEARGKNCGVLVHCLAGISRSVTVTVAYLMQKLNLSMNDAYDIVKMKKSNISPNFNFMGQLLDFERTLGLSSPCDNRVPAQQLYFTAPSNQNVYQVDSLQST

[4] = target: T2, Mannose-6-phosphate isomerase (Homo sapiens, UniProt P34949); assay: phosphomannose isomerase inhibition – biochemical, fluorescence intensity, confirmation (AID 1535)
T2 sequence (P34949 whole entry): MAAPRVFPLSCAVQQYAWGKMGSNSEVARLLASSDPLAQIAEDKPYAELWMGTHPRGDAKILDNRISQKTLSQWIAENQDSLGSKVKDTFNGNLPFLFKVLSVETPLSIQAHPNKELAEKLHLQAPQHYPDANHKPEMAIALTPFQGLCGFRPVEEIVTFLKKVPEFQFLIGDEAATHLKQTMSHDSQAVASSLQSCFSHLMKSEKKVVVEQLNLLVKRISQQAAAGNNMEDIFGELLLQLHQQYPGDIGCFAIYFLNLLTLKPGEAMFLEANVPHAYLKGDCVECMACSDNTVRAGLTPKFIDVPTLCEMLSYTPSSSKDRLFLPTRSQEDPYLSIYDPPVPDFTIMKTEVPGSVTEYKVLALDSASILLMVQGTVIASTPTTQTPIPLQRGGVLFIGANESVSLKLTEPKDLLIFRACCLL

[5] = target: T3, Phosphomannomutase 2 (Homo sapiens, UniProt O15305); assay: Counter screen SAR assay for PMM2 inhibitors via a fluorescence intensity assay. [Related pubchem assays (depositor defined):AID1545, AID1574]
T3 sequence (O15305 whole entry): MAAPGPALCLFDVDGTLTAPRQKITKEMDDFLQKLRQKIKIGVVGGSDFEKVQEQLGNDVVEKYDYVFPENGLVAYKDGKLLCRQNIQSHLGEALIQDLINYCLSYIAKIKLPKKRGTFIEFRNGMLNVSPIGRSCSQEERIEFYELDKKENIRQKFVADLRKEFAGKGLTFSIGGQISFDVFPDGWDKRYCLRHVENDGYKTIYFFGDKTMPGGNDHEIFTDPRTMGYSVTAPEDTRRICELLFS

[6] = target: T4, Hexokinase-1 (Homo sapiens, UniProt P19367); assay: SAR analysis of small molecule inhibitors of hexokinase domain containing I (HKDC1) in the hexokinase 1 selectivity assay. [Related pubchem assays (depositor defined):AID493160, AID493190]; type: functional
T4 sequence (P19367 whole entry): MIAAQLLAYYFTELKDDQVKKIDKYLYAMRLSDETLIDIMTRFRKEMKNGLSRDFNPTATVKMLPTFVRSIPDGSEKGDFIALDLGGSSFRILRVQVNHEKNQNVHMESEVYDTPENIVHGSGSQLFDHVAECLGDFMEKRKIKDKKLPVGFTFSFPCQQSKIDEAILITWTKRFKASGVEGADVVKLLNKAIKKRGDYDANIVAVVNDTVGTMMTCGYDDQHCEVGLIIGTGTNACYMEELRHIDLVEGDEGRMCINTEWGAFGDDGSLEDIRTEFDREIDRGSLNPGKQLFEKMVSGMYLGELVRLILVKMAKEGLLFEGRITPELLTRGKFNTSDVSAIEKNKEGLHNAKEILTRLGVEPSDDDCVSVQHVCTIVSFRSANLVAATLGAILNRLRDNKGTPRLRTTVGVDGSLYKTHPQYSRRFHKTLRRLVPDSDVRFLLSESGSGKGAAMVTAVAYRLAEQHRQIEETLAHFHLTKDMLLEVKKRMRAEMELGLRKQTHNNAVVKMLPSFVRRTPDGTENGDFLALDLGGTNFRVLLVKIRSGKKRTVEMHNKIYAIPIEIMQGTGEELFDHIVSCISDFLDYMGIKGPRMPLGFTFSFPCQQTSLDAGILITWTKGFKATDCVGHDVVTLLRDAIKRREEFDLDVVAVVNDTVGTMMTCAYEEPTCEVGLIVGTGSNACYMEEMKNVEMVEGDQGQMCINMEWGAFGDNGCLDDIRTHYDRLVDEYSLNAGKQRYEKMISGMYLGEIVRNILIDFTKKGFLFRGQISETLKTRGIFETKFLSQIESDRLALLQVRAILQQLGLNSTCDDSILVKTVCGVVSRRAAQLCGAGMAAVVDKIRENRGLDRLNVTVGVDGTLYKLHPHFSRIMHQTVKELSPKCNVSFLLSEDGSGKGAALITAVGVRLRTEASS

[7] = target: T5, Hexokinase HKDC1 (Homo sapiens, UniProt Q2TB90); assay: SAR analysis of small molecule inhibitors of hexokinase domain containing I (HKDC1). [Related pubchem assays (depositor defined):AID493160, AID493190]; type: functional
T5 sequence (Q2TB90 whole entry): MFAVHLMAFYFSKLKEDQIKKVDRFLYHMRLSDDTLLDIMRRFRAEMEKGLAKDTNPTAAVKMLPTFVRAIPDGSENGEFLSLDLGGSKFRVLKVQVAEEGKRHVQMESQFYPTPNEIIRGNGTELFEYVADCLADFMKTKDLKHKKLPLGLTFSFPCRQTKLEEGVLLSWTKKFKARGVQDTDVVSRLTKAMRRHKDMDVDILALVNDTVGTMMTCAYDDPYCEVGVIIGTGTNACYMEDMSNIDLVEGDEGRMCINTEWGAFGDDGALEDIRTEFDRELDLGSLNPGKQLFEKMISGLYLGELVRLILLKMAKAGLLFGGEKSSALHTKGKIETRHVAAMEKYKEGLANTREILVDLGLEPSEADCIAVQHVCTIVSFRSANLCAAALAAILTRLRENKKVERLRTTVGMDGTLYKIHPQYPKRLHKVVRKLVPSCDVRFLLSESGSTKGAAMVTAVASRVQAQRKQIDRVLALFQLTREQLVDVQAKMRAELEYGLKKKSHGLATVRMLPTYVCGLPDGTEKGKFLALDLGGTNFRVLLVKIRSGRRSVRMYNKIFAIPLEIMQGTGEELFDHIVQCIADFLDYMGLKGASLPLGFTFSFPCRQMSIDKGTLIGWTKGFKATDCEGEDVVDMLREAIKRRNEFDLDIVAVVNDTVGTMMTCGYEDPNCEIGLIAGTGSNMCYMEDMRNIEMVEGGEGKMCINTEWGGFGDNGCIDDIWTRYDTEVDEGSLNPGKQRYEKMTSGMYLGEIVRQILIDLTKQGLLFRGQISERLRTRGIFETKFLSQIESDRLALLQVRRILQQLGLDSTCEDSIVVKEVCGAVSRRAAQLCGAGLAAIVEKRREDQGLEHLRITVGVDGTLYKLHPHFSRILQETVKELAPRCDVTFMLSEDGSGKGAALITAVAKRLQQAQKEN

[8] = target: Eukaryotic translation initiation factor 4E (Mus musculus, UniProt P63073); assay: blockers of eIF4G binding by eIF4E – biochemical, TR-FRET, dose response (AID 855); type: functional;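 further: potency for disrupting eIF4E binding to eIF4GI seen as loss of FRET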
[9] = target: Heat shock protein HSP 90-alpha (Homo sapiens, UniProt P07900); type: functional, organism-based
[10] = target: T2, Mannose-6-phosphate isomerase; assay: MPI inhibition at elevated mannose 6-phosphate – biochemical, fluorescence intensity, high mannose 6-phosphate, primary screen (AID 1220)
[11] = reduction of Shn3 3'UTR-driven luciferase in osteoblasts – cell-based, Clone20 osteoblasts, firefly luciferase, cherry-picked, dose response (AID 624132); type: functional;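 further: firefly luciferase luminescence from reporter carrying the Shn3 3'UTR in osteoblasts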
[12] = non-specific 3'UTR reporter inhibition in Clone20-Shn3RL – cell-based, Renilla luciferase, cherry-picked, counter-screen for Shn3 inhibitor project, dose response (AID 624133); type: functional
[13] = microbe, parasite or virus in culture; type: functional; details: Mycobacterium tuberculosis
[14] = tested on: CHO; assay: CHO cell viability loss, potency – luminescence, cytotoxicity control for TLR9-MyD88 binding inhibitor project, dose response (AID 588339); type: functional, cell-based, hamster; details: Cricetulus griseus;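 further: CHO cells stably coexpressing TLR9 and MyD88 fusions from primary screen; compound exposure lasted 48 hours before viability readout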
[15] = loss of viability in HepG2 cells – cell-based, CellTiter-Glo, cherry-picked, cytotoxicity control for Shn3 inhibitor project, dose response (AID 624134); type: functional
[16] = tested on: INS1; assay: INS-1E survival protection against cytokine death – cell-based, luminescence, retest, dose response (AID 449756); type: functional; details: Rattus norvegicus;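 further: cell death triggered by IL-1 beta plus TNF-alpha plus IFN-gamma mixture; protective hits raise ATP signal compared with cytokine alone wells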
[17] = target: Voltage-gated inwardly rectifying potassium channel KCNH2 (Homo sapiens, UniProt Q12809); details: Potency;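 further: confirmatory quantitative high-throughput screen measuring inhibition of hERG channel activity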
[18] = tested on: Candida albicans; assay: resistant Candida growth with fluconazole co-treatment – CaCi-8 strain, Alamar Blue, dry powder, set 2, dose response (AID 488909); type: functional, organism-based
[19] = tested on: Candida albicans; assay: fluconazole-resistant Candida strain growth inhibitors – CaCi-8 strain, dry powder, set 4, dose response (AID 488950); type: functional, organism-based
[20] = tested on: Candida albicans; assay: C. albicans growth inhibition with fluconazole – CaCi-2 strain, Alamar Blue, dry powder, set 4, dose response (AID 488943); type: functional, organism-based

Chain of Voltage-gated inwardly rectifying potassium channel KCNH2 (Q12809 whole entry): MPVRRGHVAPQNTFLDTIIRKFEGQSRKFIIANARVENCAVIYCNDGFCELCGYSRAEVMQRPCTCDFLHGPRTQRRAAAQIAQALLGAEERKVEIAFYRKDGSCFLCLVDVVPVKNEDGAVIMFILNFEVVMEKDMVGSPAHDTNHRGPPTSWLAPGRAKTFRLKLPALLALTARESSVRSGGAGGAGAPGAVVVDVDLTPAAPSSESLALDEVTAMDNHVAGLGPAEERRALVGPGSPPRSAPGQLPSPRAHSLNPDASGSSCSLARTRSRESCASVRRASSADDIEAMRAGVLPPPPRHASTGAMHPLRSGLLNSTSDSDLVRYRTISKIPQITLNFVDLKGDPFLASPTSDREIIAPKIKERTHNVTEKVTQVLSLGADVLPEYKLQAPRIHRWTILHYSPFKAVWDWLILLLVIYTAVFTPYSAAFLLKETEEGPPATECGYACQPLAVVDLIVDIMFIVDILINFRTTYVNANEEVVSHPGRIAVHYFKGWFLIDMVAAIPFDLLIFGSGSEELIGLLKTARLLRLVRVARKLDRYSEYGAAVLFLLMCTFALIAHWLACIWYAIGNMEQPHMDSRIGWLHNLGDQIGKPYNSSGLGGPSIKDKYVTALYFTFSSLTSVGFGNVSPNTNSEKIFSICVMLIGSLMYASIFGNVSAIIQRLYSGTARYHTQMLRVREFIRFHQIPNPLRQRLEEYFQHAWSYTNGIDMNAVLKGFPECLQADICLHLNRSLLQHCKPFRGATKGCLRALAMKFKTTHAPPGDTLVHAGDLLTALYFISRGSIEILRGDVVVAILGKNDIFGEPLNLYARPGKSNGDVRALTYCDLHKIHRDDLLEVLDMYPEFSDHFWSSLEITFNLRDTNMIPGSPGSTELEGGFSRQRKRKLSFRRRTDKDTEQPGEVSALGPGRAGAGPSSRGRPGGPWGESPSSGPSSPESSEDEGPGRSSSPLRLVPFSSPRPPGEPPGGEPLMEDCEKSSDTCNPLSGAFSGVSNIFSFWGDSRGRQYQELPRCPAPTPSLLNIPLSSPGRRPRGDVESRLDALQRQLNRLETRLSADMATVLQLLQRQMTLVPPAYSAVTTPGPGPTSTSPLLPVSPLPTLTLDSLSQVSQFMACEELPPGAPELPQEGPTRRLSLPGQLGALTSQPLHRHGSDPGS
Chain of Eukaryotic translation initiation factor 4E (P63073 whole entry): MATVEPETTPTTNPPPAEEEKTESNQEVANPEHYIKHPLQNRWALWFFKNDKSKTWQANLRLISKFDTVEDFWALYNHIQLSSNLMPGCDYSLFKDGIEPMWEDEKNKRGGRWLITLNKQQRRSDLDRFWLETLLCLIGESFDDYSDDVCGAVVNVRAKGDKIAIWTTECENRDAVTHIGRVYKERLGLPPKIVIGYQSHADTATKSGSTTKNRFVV
Chain of Dual specificity protein phosphatase 3 (P51452 whole entry): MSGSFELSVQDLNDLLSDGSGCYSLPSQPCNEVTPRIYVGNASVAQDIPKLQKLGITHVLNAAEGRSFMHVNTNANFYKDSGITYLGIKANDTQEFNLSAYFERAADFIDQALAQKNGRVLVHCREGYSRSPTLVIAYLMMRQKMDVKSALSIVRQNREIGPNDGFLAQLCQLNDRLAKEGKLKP

COc1nc(C)ccc1-c1noc(-c2ccncc2)n1
AC50 [1]: 40 µM (active)

NS(=O)(=O)c1cc(C(=O)NC2CCOc3ccccc32)ccc1Cl (stereo not given)
IC50 [2]: > 100 µM (inactive)
IC50 [3]: > 100 µM (inactive)

Cc1nn(-c2ccccc2)c(S)c1C=Nc1cccc([N+](=O)[O-])c1
IC50 [4]: 31.1 µM (active)
IC50 [5]: > 100 µM (inactive)

N=C(NOC(=O)C12CC3CC(CC(C3)C1)C2)c1ccccn1
AC50 [1]: 27.5 µM (active)

O=c1c2ccccc2nc(/C=C/c2cccnc2)n1Cc1cccc(Cl)c1
IC50 [6]: > 80 µM (inactive)
IC50 [7]: > 80 µM (inactive)

Clc1ccc(/N=c2\ssnc2Cl)cc1
IC50 [4]: 12.5 µM (active)
IC50 [8]: 28.2 µM (active)
AC50 [9]: 8.4 µM (active)
IC50 [5]: > 100 µM (inactive)
IC50 [10]: > 50 µM (not active)

Cc1ccc(-n2c(Cl)c(Cl)nc(Cl)c2=O)cc1
AC50 [11]: 1.77 µM (active)
AC50 [12]: 3.58 µM (active)
CC50 [13]: 39.1 µM (active)
AC50 [9]: 1.38 µM (active)
IC50 [14]: 1.39 µM (active)
AC50 [15]: 8.89 µM (active)
AC50 [16]: 4.43 µM (active)

Cc1ccccc1C(N)=O
AC50 [17]: 35.5 µM (inconclusive)

Cc1ccccc1N1C(=O)c2cc(S(N)(=O)=O)c(Cl)cc2NC1C (stereo not given) [METOLAZONE]
AC50 [17]: 0.112 µM (inconclusive)

Cc1cc(N2CCN(C(=O)c3ccc(Cl)cc3)CC2)c2ccc(F)cc2n1
AC50 [18]: 49.3 µM (active)
AC50 [19]: 14.4 µM (active)
AC50 [20]: 15.8 µM (active)
